Reference: patent US20110129508A1 (priority 2008, published 2011)
“Also recorded” adds a separate entry of the source. Like-named read-outs stand apart in the source and are kept apart here.

Columns and labels:
[1] = test system: rat model of diabetic neuropathic pain; set-up: species or system rats; conditions: in vivo
[2] = test system: rat model of prostate bone cancer pain; assay: animal or person; assay type: in vivo, Male Wistar rats; conditions: for ED50: Rattus norvegicus
[3] = test system: streptozotocin-induced diabetic neuropathy model of neuropathic pain; conditions: rat, in vivo, ip, 2.5 mg/kg
[4] = rat, in vivo
[5] = male, Wistar (HsdBrlHan WIST), rat, in vivo, ip

Row | SMILES | reversal of hyperalgesia [1] | ED50 ([2]; ip) | ED50 ([2]; read-out: ED50 Mean) | reversal in hyperalgesia [3] | mean rest times [4] | antinociception ([2]; rat, in vivo, ip) | reversal of hyperalgesia ([2]; rat, in vivo, ip, 5 mg/kg) | maximum non-sedating dose [5]
1 | CCOC(=O)Nc1ccc(NCc2ccc(F)cc2)nc1N [flupirtine] | 8±8% | 3.32 mg/kg | 3.32 mg/kg | over 20% | 943.83 s | – | – | –
2 | CN1CC[C@]23c4c5ccc(O)c4O[C@H]2[C@@H](O)C=C[C@H]3[C@H]1C5 [morphine] | – | 0.735 mg/kg | 0.735 mg/kg | – | – | dose related antinociception; also recorded: dose related antinociceptive effects | 73% | 5 mg/kg
